# Results: ChEMBL document CHEMBL1201862, “PubChem BioAssay data set” (2004)
#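 Exposure lasted 48 hours, with cells grown in 96-well plates and compounds tested at five concentrations. GI50: concentration for 50% inhibition of growth.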 Calls of active or inactive are those of the source. Cut-off read from the data, not from the text of the source: active = GI50 up to about 1.1 µM and inactive = higher.
# Tests used:
# Experiment in all cases: NCI-60 cell line screen, 48 h
# HCT-116 = system: HCT-116
# TK-10 = system: TK-10
# MOLT-4 = system: MOLT-4
# OVCAR-5 = system: OVCAR-5
# RXF 393 = system: RXF 393
# CCRF-CEM = system: CCRF-CEM
# CAKI-1 = system: CAKI-1
# U-251 = system: U-251
# PC-3 = system: PC-3
# M14 = system: M14
# SNB-19 = system: SNB-19
# RPMI-8226 = system: RPMI-8226
# SK-OV-3 = system: SK-OV-3
# HOP-92 = system: HOP-92
# SK-MEL-5 = system: SK-MEL-5
# ACHN = system: ACHN
# NCI-H460 = system: NCI-H460
# NCI-H23 = system: NCI-H23
# A498 = system: A498
# SNB-75 = system: SNB-75
SMILES,GI50 (HCT-116),GI50 (TK-10),GI50 (MOLT-4),GI50 (OVCAR-5),GI50 (RXF 393),GI50 (CCRF-CEM),GI50 (CAKI-1),GI50 (U-251),GI50 (PC-3),GI50 (M14),GI50 (SNB-19),GI50 (RPMI-8226),GI50 (SK-OV-3),GI50 (HOP-92),GI50 (SK-MEL-5),GI50 (ACHN),GI50 (NCI-H460),GI50 (NCI-H23),GI50 (A498),GI50 (SNB-75)
O=C(c1ccccc1)c1ccc(N2C(=O)/C(=C/c3cccc(Oc4ccccc4)c3)N=C2c2ccccc2)c(N2C(=O)/C(=C/c3cccc(Oc4ccccc4)c3)N=C2c2ccccc2)c1,36.1 µM (inactive),25.5 µM (inactive),11.9 µM (inactive),50.6 µM (inactive),23.8 µM (inactive),8.32 µM (inactive),41.5 µM (inactive),31.3 µM (inactive),26.5 µM (inactive),35.7 µM (inactive),38.5 µM (inactive),19.3 µM (inactive),42.9 µM (inactive),88.5 µM (inactive),13.3 µM (inactive),53 µM (inactive),23.9 µM (inactive),29.6 µM (inactive),33.1 µM (inactive),23.9 µM (inactive)
CC(=O)NNc1nc(C)c(C(/C=C/c2ccc([N+](=O)[O-])cc2)=N/N)s1,> 100 µM (inactive),37.9 µM (inactive),> 100 µM (inactive),> 100 µM (inactive),55.3 µM (inactive),> 100 µM (inactive),> 100 µM (inactive),> 100 µM (inactive),> 100 µM (inactive),> 100 µM (inactive),> 100 µM (inactive),30.9 µM (inactive),41.3 µM (inactive),> 100 µM (inactive),> 100 µM (inactive),> 100 µM (inactive),> 100 µM (inactive),> 100 µM (inactive),70.5 µM (inactive),87.9 µM (inactive)
C[C@]12CC[C@H](O)CC1=CC[C@@H]1[C@@H]2CC[C@]2(C)C(=N/O)/C(=C/c3ccc([N+](=O)[O-])cc3)C[C@@H]12,3.93 µM (inactive),,3.66 µM (inactive),1.61 µM (inactive),3.6 µM (inactive),5.94 µM (inactive),7.05 µM (inactive),,3.22 µM (inactive),6.75 µM (inactive),10.6 µM (inactive),3.59 µM (inactive),0.403 µM (active),3.29 µM (inactive),1.18 µM (inactive),4.13 µM (inactive),0.519 µM (active),5.94 µM (inactive),3.33 µM (inactive),4.32 µM (inactive)
CCC(CC)C(=O)OC[n+]1cccc(-c2c(COC(=O)NC(C)C)c(COC(=O)NC(C)C)c3n2CCC3)c1,> 100 µM (inactive),> 100 µM (inactive),33.3 µM (inactive),> 100 µM (inactive),61.4 µM (inactive),38.4 µM (inactive),49.4 µM (inactive),> 100 µM (inactive),> 100 µM (inactive),56.9 µM (inactive),> 100 µM (inactive),> 100 µM (inactive),> 100 µM (inactive),72.3 µM (inactive),> 100 µM (inactive),40.8 µM (inactive),45.8 µM (inactive),61.1 µM (inactive),> 100 µM (inactive),> 100 µM (inactive)
C[C@]12OC(=O)[C@]3(O)CC[C@H]4[C@@H](C[C@@H](O)[C@@]5(Cl)CC=CC(=O)[C@]45C)[C@]45OCC6C(=O)O[C@@H]1C[C@@]6(C)[C@H](C4=O)[C@@]32O5 (stereo partly drawn),0.656 µM (active),1.6 µM (inactive),0.615 µM (active),1.4 µM (inactive),0.283 µM (active),0.22 µM (active),0.787 µM (active),1.5 µM (inactive),2.3 µM (inactive),1.13 µM (inactive),5.73 µM (inactive),0.596 µM (active),3.5 µM (inactive),1.42 µM (inactive),1.56 µM (inactive),1.05 µM (active),1.89 µM (inactive),0.542 µM (active),1.37 µM (inactive),9.31 µM (inactive)
Nc1ncnc2c1ncn2[C@H]1C=C[C@@H](NO)C1,> 100 µM (inactive),> 100 µM (inactive),> 100 µM (inactive),> 100 µM (inactive),> 100 µM (inactive),> 100 µM (inactive),> 100 µM (inactive),> 100 µM (inactive),> 100 µM (inactive),> 100 µM (inactive),> 100 µM (inactive),> 100 µM (inactive),> 100 µM (inactive),> 100 µM (inactive),> 100 µM (inactive),> 100 µM (inactive),> 100 µM (inactive),> 100 µM (inactive),> 100 µM (inactive),> 100 µM (inactive)
CN(C)c1ccc2nc3c(C(=O)O)cc(O)c(O)c3[o+]c2c1,24.9 µM (inactive),21.8 µM (inactive),14.4 µM (inactive),65.3 µM (inactive),24.6 µM (inactive),10.5 µM (inactive),52.8 µM (inactive),29.7 µM (inactive),36.5 µM (inactive),21.7 µM (inactive),28.7 µM (inactive),18.8 µM (inactive),25 µM (inactive),67 µM (inactive),15.3 µM (inactive),31.5 µM (inactive),24.8 µM (inactive),16.8 µM (inactive),> 100 µM (inactive),21.5 µM (inactive)
COC1C(N)C(OC2C(Oc3cccc4c(O)c5c(=O)oc6ccc(C)c7c(=O)oc(c34)c5c67)OC(C)C(O)C2(C)O)OC(C)C1O (stereo not drawn),< 0.01 µM (active),0.0643 µM (active),< 0.0243 µM (active),0.27 µM (active),< 0.0184 µM (active),< 0.0236 µM (active),0.0159 µM (active),< 0.01 µM (active),0.0246 µM (active),0.0789 µM (active),0.0186 µM (active),< 0.01 µM (active),0.114 µM (active),0.0231 µM (active),0.031 µM (active),0.0399 µM (active),< 0.0122 µM (active),0.0269 µM (active),< 0.01 µM (active),0.0313 µM (active)
COc1cc(C(=O)OC2CC(C)=CC[C@@]3(C)CC[C@](O)(C(C)C)C23)ccc1O (stereo partly drawn),19 µM (inactive),15 µM (inactive),13.2 µM (inactive),18 µM (inactive),18.4 µM (inactive),26.3 µM (inactive),16.3 µM (inactive),31.3 µM (inactive),17.4 µM (inactive),17 µM (inactive),19.2 µM (inactive),25.6 µM (inactive),15.4 µM (inactive),16.3 µM (inactive),17.5 µM (inactive),18.4 µM (inactive),16.6 µM (inactive),17.8 µM (inactive),18.9 µM (inactive),18.7 µM (inactive)
O=C1C=C2C(=NC34CCCCC3C(c3ccccc3)C3=C(c5ccccc5CC3)N24)c2ccccc21 (stereo not drawn),> 10 µM (inactive),> 10 µM (inactive),> 10 µM (inactive),> 10 µM (inactive),> 10 µM (inactive),> 10 µM (inactive),> 10 µM (inactive),> 10 µM (inactive),> 10 µM (inactive),> 10 µM (inactive),> 10 µM (inactive),> 10 µM (inactive),> 10 µM (inactive),> 10 µM (inactive),> 10 µM (inactive),> 10 µM (inactive),> 10 µM (inactive),> 10 µM (inactive),> 10 µM (inactive),8.95 µM (inactive)
CSc1nc(O)c(C#N)c(-c2ccc(Cl)cc2)n1,72.1 µM (inactive),> 100 µM (inactive),> 100 µM (inactive),> 100 µM (inactive),66.7 µM (inactive),61 µM (inactive),> 100 µM (inactive),97.9 µM (inactive),91.4 µM (inactive),> 100 µM (inactive),77.4 µM (inactive),80.4 µM (inactive),> 100 µM (inactive),24.8 µM (inactive),> 100 µM (inactive),> 100 µM (inactive),> 100 µM (inactive),> 100 µM (inactive),74.6 µM (inactive),93.8 µM (inactive)
N#Cc1cc2c(cc1C#N)SCCSCCCSCCS2,21.3 µM (inactive),2.82 µM (inactive),> 89.9 µM (inactive),> 72.3 µM (inactive),5.92 µM (inactive),> 48.3 µM (inactive),22.8 µM (inactive),5.32 µM (inactive),21.9 µM (inactive),38.3 µM (inactive),6.79 µM (inactive),> 100 µM (inactive),12 µM (inactive),2.49 µM (inactive),> 100 µM (inactive),6.93 µM (inactive),15.2 µM (inactive),16.1 µM (inactive),40.8 µM (inactive),4.61 µM (inactive)
COc1ccc2c(c1)/C(=C\c1c(Cl)nc3sc(C)cn13)C(=O)N2,3.1 µM (inactive),6.37 µM (inactive),1.54 µM (inactive),9.59 µM (inactive),8.22 µM (inactive),1.19 µM (inactive),3.37 µM (inactive),3.21 µM (inactive),2.78 µM (inactive),2.69 µM (inactive),3.84 µM (inactive),2.61 µM (inactive),4.03 µM (inactive),10.6 µM (inactive),2.16 µM (inactive),6.95 µM (inactive),2.51 µM (inactive),4.12 µM (inactive),3.7 µM (inactive),4.98 µM (inactive)
